Reference: patent publication US8106053B2, “5-phenyl-3-pyridazinone derivative” (Kowa Company, Ltd., priority 2007, dated 2012)

Tests used:
[1] = test system: PAI-1 production in human airway epithelial cells (BEAS-2B); test: Activity of inhibiting PAI-1 production using airway epithelial cells (TGF-β stimulated, ELISA); assay type: cell-based; conditions: BEAS-2B cells, 24 hours, PAI-1 in culture supernatant by ELISA
Protocol: The effect of a compound on PAI-1 production activity using airway epithelial cells was examined. This reflects PAI-1 concentration in the lung tissue related to fibrosis (lung).
The effect on the amount of PAI-1 produced using human airway epithelial cells (BEAS-2B) was examined. After 0.1 ml each of BEAS-2B cells prepared at 2×10^6 cells/ml was added to a collagen I-coated 96-well plate, preincubated for 24 hours, 0.1 ml of a medium containing […] TGF-β was added thereto and incubated for 24 hours, the amount of PAI-1 in the culture supernatant was determined using an ELISA kit. The test substance was dissolved in dimethyl sulfoxide (final concentration, 0.1% or less), and was prepared at 0.2, 1, 5 and 25 μM using a phosphate buffer, and added after preculturing. The activity of inhibiting PAI-1 production of the compound of the present invention was expressed in terms of the IC50 value and shown in Table 2.

[2] = test system: C57BL/6 mice, bleomycin-induced pulmonary fibrosis; test: Bleomycin-induced pulmonary fibrosis model, amount of lung hydroxyproline; assay type: in vivo; conditions: 0.3 mg/kg orally once daily, three weeks after intratracheal bleomycin 6 mg/kg, relative to solvent-administration group
Text: It has been reported that bleomycin administration into the trachea leads to pulmonary fibrosis. Its pathological findings including the hypertrophy and fibrosis of the alveolar wall, increased inflammatory cells, the increased amount of hydroxyproline etc. are similar to clinical idiopathic pulmonary fibrosis, and it has been often used as an experimental model of pulmonary fibrosis (Biochem. Biophys. Res. Comm. 288, 747 (2001)). To C57BL/6 mice (6-week-old, female), bleomycin hydrochloride (Bleo: NIPPON KAYAKU CO., LTD) (6 mg/kg, 25 μl/animal) was injected into the bronchus together with 500 μl of compressed air. Three weeks after administration into the trachea, the amount of hydroxyproline in the lung was determined. 0.3 mg/kg of the test substance was suspended in 0.5% carboxymethyl cellulose sodium, and orally administered once daily. The effect of the compound of the present invention was expressed in the inhibition percentage relative to the increased amount of lung hydroxyproline of the solvent-administration group, and shown in Table 3.

Row | Compound | IC50 [1] [µM] | Inhibition percentage relative to the increased amount of pulmonary hydroxyproline [2] [%] | IC50 ([1]; Homo sapiens) [µM]
1 | 5-(3-(cyclopropylmethyl)-4-methoxyphenyl)-2-methylpyridazin-3-one [Compound No. 2] | 16.8 | 66 | –
2 | 5-(4-methoxy-3-(tetrahydrofuranyloxy)phenyl)-2-phenylpyridazin-3-one [Compound No. 9] | – | 117 | –
3 | COc1ccc(-c2cn[nH]c(=O)c2)cc1OC [Compound No. 1, 5-(3,4-dimethoxyphenyl)pyridazin-3-one] | – | – | 14.1
4 | COc1ccc(-c2cnn(C)c(=O)c2)cc1OC1CCCC1 [Compound No. 3, 5-(3-(cyclopentyloxy)-4-methoxyphenyl)-2-methylpyridazin-3-one] | – | 68 | 5.8
5 | COc1ccc(-c2cn[nH]c(=O)c2)cc1OC1CCOC1 (centres unmarked) [Compound No. 4, 5-(4-methoxy-3-(3-tetrahydrofuranyloxy)phenyl)pyridazin-3-one] | – | – | 8.4
6 | COc1ccc(-c2cnn(-c3ccccc3)c(=O)c2)cc1OC1CCCC1 [Compound No. 6, 5-(3-(cyclopentyloxy)-4-methoxyphenyl)-2-phenylpyridazin-3-one] | – | 84 | –
7 | COc1ccc(-c2cnn(C)c(=O)c2)cc1OC1CCOC1 (centres unmarked) [Compound No. 12, 5-(4-methoxy-3-(3-tetrahydrofuranyloxy)phenyl)-2-methylpyridazin-3-one] | – | – | 4
8 | COc1ccc(-c2cnn(C)c(=O)c2)cc1O[C@H]1CCOC1 [Compound No. 16, (S)-5-(4-methoxy-3-(3-tetrahydrofuranyloxy)phenyl)-2-methylpyridazin-3-one] | – | – | 23.2
9 | COc1ccc(-c2cnn(Cc3ccc4ccccc4n3)c(=O)c2)cc1OC1CCCC1 [Compound No. 19, 5-(3-(cyclopentyloxy)-4-methoxyphenyl)-2-(2-quinolylmethyl)pyridazin-3-one] | – | 132 | –
